From patent US8877819B2, “Methods for treating heat stress and related compositions” (Georgetown University, priority 2008, dated 2014)
Marks after values point to notes of the source that are not given here.

Experiments:
TNF-α = experiment: Cytokine assay (ELISA), TNF-α; type: in vivo, Zucker Fatty Rats; conditions: Experiment 2
Experimental: (§1) Various cytokines were measured by ELISA methodology using kits from the following sources: rat MCP-1—Assay Designs Inc., Ann Arbor, Mich.; rat adiponectin—ALPCO Diagnostics, Salem, N.H.; TNF-a, ALPCO Diagnostics, Salem, N.H.; RAT IL-1B—Assay Designs Inc, Ann Arbor, Mich.; RAT IL-6—ALPCO Diagnostics, Salem, N.H.

DNA fragmentation = DNA fragmentation in liver and kidney; type: in vivo, Zucker Fatty Rats; conditions: Experiment 2; for DNA Fragmentation, Kidney / DNA Fragmentation, Liver: percentage of total DNA in the supernatant fraction
Experimental: Frozen liver and kidney samples were homogenized in lysis buffer (5 mM Tris-HCl, 20 mM EDTA, 0.5% Triton X-100, pH 8.0). Homogenates were centrifuged at 27,000 g for 20 min to separate intact chromatin in the pellet from fragmented DNA in the supernatant fraction. Pellets were re-suspended in 0.5 M perchloric acid and 5.5 M perchloric acid was added to supernatant samples to reach a concentration of 0.5 M. Samples were heated at 90° C. for 15 min and centrifuged at 1,500 g for 10 min to remove protein. Resulting supernatants were reacted with diphenylamine for 16-20 h at room temperature. Absorbance was measured at 600 nm. DNA fragmentation in control samples was expressed as percentage of total DNA appearing in the supernatant fraction. Treatment effects are reported as percent of control fragmentation.

Zucker Fatty Rats (ZFR) [1] = experiment: Insulin Challenge Testing (ICT); type: in vivo; conditions: Experiment 1, survivors after heat stress
Experimental: Testing was commenced after 17-19 hours of food deprivation. For ICT, 0.6 unit of regular insulin/kg BW (Eli Lilly Co., Indianapolis, Ind.) was administered, and blood for glucose determination was obtained from the tail vein at 7.5 min after injection. Glucose was estimated using commercial glucose strips (Lifescan, One Touch Ultra, […], Calif.).

RAS = experiment: Losartan challenge (decrease in SBP to estimate activity of the RAS); type: in vivo, Zucker Fatty Rats; conditions: losartan 40 mg/kg orally
Description: Three and six hours after lavage, SBP was remeasured. The decreased SBP after losartan was used to estimate activity of the RAS.

adiponectin = experiment: Cytokine assay (ELISA), adiponectin; type: in vivo, Zucker Fatty Rats; conditions: Experiment 2
Experimental: as §1

angiotensin-2 = experiment: Serum angiotensin-2 levels (radioimmunoassay); type: in vivo, Zucker Fatty Rats
Experimental: Serum angiotensin-2 was trapped by octylminicolumns (Amprep-C8, 500 mg, Amersham, Buckingshire, UK). Each minicolumn was prewashed with 5 mL of 100% methanol and then with 10 mL of 0.1% trifluoroacetic acid (TFA) in distilled water. After the serum was passed through the minicolumn, it was washed with 0.1% TFA again. […] Samples were collected and dried in a vacuum centrifuge and dissolved in 0.1M Tris-acetate buffer (pH 7.4) containing 2.6 mM disodium salt of ethylenediaminetetra-acetic acid (EDTA), 1 mM phenylmethylsulphonyl fluoride, and 0.1% bovine serum albumin.
Angiotensin-2 was measured by radioimmunoassay using an angiotensin-2 antibody (Peninsula Laboratories Inc., Belmont, Calif.). The sensitivity of the assay is 1.0 pg/tube. The 500-fold diluted angiotensin-2 antibody (100 μL) was added to the sample (400 μL) and standard tubes that were incubated 24 hours at 4° C.

IL-6 = experiment: Cytokine assay (ELISA), IL-6; type: in vivo, Zucker Fatty Rats; conditions: Experiment 2
Experimental: as §1

Zucker Fatty Rats (ZFR) [2] = experiment: Intraperitoneal Glucose Tolerance Test (ipGTT); type: in vivo; conditions: Experiment 2; for insulin concentration one hour after the glucose challenge: glucose 2.5 g/kg i.p.; for Baseline insulin concentration / average baseline glucose level: ipGTT baseline
Experimental: During the ipGTT, glucose (2.5 g/kg BW) was injected intraperitoneally (i.p.) to challenge the tolerance to glucose. Drops of blood were obtained from the tail at 0, 30, 60, 120, 180 and 240 minutes post injection. Glucose was estimated using commercial glucose strips (Lifescan, One Touch Ultra, […], Calif.).

IL-1B = experiment: Cytokine assay (ELISA), IL-1B; type: in vivo, Zucker Fatty Rats; conditions: Experiment 2
Experimental: as §1

Organ weights = type: in vivo, Zucker Fatty Rats; conditions: Experiment 2, after sacrifice, in g (unit assumed)
Experimental: Organ weights were measured immediately after sacrifice of the rats.

[3] = Hi Asta, astaxanthin 25 mg/kg in feed
[4] = Lo Asta, astaxanthin 5 mg/kg in feed
[5] = Experiment 2, Hi Asta, astaxanthin 25 mg/kg in feed
[6] = Experiment 2, Lo Asta, astaxanthin 5 mg/kg in feed
[7] = Experiment 2, captopril 30 mg/kg in feed

**Q.** With CC1=C(/C=C/C(C)=C/C=C/C(C)=C/C=C/C=C(C)/C=C/C=C(C)/C=C/C2=C(C)C(=O)[C@@H](O)CC2(C)C)C(C)(C)C[C@H](O)C1=O [Asta, astaxanthin] as the molecule, how does the TNF-α (TNF-α; [3]) read?
**A.** 294.0 ± 13.0

**Q.** What about the TNF-α (TNF-α; [4]) of the same molecule?
**A.** 349.0 ± 11.9

**Q.** And the “DNA Fragmentation (% Control), Kidney” value (DNA fragmentation; [3])?
**A.** 100 % Control

**Q.** What about the “DNA Fragmentation (% Control), Liver” value (DNA fragmentation; [3]) of the same molecule?
**A.** 103 % Control

**Q.** What about the “DNA Fragmentation (% Control), Kidney” value (DNA fragmentation; [4]) of the same molecule?
**A.** 102 % Control

**Q.** And the “DNA Fragmentation (% Control), Liver” value (DNA fragmentation; [4])?
**A.** 108 % Control

**Q.** What about the “DNA Fragmentation, Kidney” value (DNA fragmentation; [3]) of the same molecule?
**A.** 4.3 ± 0.48

**Q.** What about the “DNA Fragmentation, Liver” value (DNA fragmentation; [3]) of the same molecule?
**A.** 4.1 ± 0.33

**Q.** What about the “DNA Fragmentation, Kidney” value (DNA fragmentation; [4]) of the same molecule?
**A.** 4.4 ± 0.37

**Q.** What about the “DNA Fragmentation, Liver” value (DNA fragmentation; [4]) of the same molecule?
**A.** 4.3 ± 0.38

**Q.** And the “Insulin: decrease in circulating glucose after insulin challenge (ICT)” value (shortened to “Insulin: decrease in circulating glucose”) (Zucker Fatty Rats (ZFR) [1]; [3])?
**A.** -7.6 ± 2.5 mg/dL

**Q.** What about the “Insulin: decrease in circulating glucose” value (Zucker Fatty Rats (ZFR) [1]; [4]) of the same molecule?
**A.** -8.5 ± 4.1 mg/dL

**Q.** And the “Losartan: decrease in SBP after losartan challenge” value (from here on “Losartan: decrease in SBP”) (RAS; Experiment 1, survivors after heat stress, Hi Asta, astaxanthin 25 mg/kg in feed)?
**A.** 28.0 ± 2.5

**Q.** What about the “Losartan: decrease in SBP” value (RAS; Experiment 1, survivors after heat stress, Lo Asta, astaxanthin 5 mg/kg in feed) of the same molecule?
**A.** 38.0 ± 3.2

**Q.** What about the “Losartan: decrease in SBP” value (RAS; [5]) of the same molecule?
**A.** 27.5 ± 1.3 mm Hg

**Q.** What about the “Losartan: decrease in SBP” value (RAS; [6]) of the same molecule?
**A.** 33.8 ± 2.8 mm Hg

**Q.** What about the Adiponectin (adiponectin; [3]) of the same molecule?
**A.** 4.03 ± 0.40

**Q.** What about the Adiponectin (adiponectin; [4]) of the same molecule?
**A.** 4.11 ± 0.27

**Q.** And the “Angio 2” value (angiotensin-2; [5])?
**A.** 177.0 ± 5.2 pg/mL

**Q.** What about the “Angio 2” value (angiotensin-2; [6]) of the same molecule?
**A.** 197.0 ± 7.2 pg/mL

**Q.** What about the IL-6 (IL-6; [3]) of the same molecule?
**A.** 433.0 ± 9.3

**Q.** What about the IL-6 (IL-6; [4]) of the same molecule?
**A.** 470.0 ± 21^

**Q.** What about the “insulin concentration one hour after the glucose challenge” value (from here on “insulin concentration one hour”) (Zucker Fatty Rats (ZFR) [2]; [3]) of the same molecule?
**A.** 2.23 ng/mL

**Q.** What about the “insulin concentration one hour” value (Zucker Fatty Rats (ZFR) [2]; [4]) of the same molecule?
**A.** 2.15 ng/mL

**Q.** And the Baseline insulin concentration (Zucker Fatty Rats (ZFR) [2]; [3])?
**A.** 0.90 ng/mL

**Q.** And the “average baseline glucose level” value (Zucker Fatty Rats (ZFR) [2]; [3])?
**A.** 406 mg/dL

**Q.** And the Baseline insulin concentration (Zucker Fatty Rats (ZFR) [2]; [4])?
**A.** 0.80 ng/mL

**Q.** And the “average baseline glucose level” value (Zucker Fatty Rats (ZFR) [2]; [4])?
**A.** 346 mg/dL

**Q.** What about the “area under the curve after glucose challenge vs control” value (Zucker Fatty Rats (ZFR) [2]; six rats per group, Hi Asta, astaxanthin 25 mg/kg in feed) of the same molecule?
**A.** statistically significant lower average reading than control

**Q.** And the IL-1β (IL-1B; [3])?
**A.** 440.0 ± 25.5

**Q.** What about the IL-1β (IL-1B; [4]) of the same molecule?
**A.** 490.0 ± 21.7

**Q.** What about the “Organ weight, Epidydimal fat pad” value (Organ weights; [3]) of the same molecule?
**A.** 21.7 ± 12

**Q.** What about the “Organ weight, Kidney (left)” value (Organ weights; [3]) of the same molecule?
**A.** 2.4 ± 0.08

**Q.** And the “Organ weight, Kidney (right)” value (Organ weights; [3])?
**A.** 2.5 ± 0.10

**Q.** What about the “Organ weight, Liver” value (Organ weights; [3]) of the same molecule?
**A.** 43.3 ± 2.3

**Q.** What about the “Organ weight, Epidydimal fat pad” value (Organ weights; [4]) of the same molecule?
**A.** 19.3 ± 0.9

**Q.** And the “Organ weight, Kidney (left)” value (Organ weights; [4])?
**A.** 2.5 ± 0.16

**Q.** What about the “Organ weight, Kidney (right)” value (Organ weights; [4]) of the same molecule?
**A.** 2.5 ± 0.34

**Q.** And the “Organ weight, Liver” value (Organ weights; [4])?
**A.** 40.4 ± 2.4

**Q.** For C[C@H](CS)C(=O)N1CCC[C@H]1C(=O)O [Captopril, reference compound], which TNF-α (TNF-α; captopril 30 mg/kg in feed) is on record?
**A.** 242.0 ± 13.6

**Q.** And the “DNA Fragmentation (% Control), Kidney” value (DNA fragmentation; captopril 30 mg/kg in feed)?
**A.** 105 % Control

**Q.** What about the “DNA Fragmentation (% Control), Liver” value (DNA fragmentation; captopril 30 mg/kg in feed) of the same molecule?
**A.** 100 % Control

**Q.** And the “DNA Fragmentation, Kidney” value (DNA fragmentation; captopril 30 mg/kg in feed)?
**A.** 4.5 ± 0.51

**Q.** And the “DNA Fragmentation, Liver” value (DNA fragmentation; captopril 30 mg/kg in feed)?
**A.** 4.0 ± 0.17

**Q.** What about the “Insulin: decrease in circulating glucose” value (Zucker Fatty Rats (ZFR) [1]; captopril 30 mg/kg in feed) of the same molecule?
**A.** -9.8 ± 3.5 mg/dL

**Q.** And the “Losartan: decrease in SBP” value (RAS; Experiment 1, survivors after heat stress, captopril 30 mg/kg in feed)?
**A.** 29.0 ± 2.4

**Q.** And the “Losartan: decrease in SBP” value (RAS; [7])?
**A.** 30.6 ± 1.8 mm Hg

**Q.** And the Adiponectin (adiponectin; captopril 30 mg/kg in feed)?
**A.** 4.27 ± 0.39

**Q.** And the “Angio 2” value (angiotensin-2; [7])?
**A.** 162.0 ± 6.4 pg/mL

**Q.** And the IL-6 (IL-6; captopril 30 mg/kg in feed)?
**A.** 391.0 ± 12*^

**Q.** What about the “insulin concentration one hour” value (Zucker Fatty Rats (ZFR) [2]; captopril 30 mg/kg in feed) of the same molecule?
**A.** 2.37 ng/mL

**Q.** What about the Baseline insulin concentration (Zucker Fatty Rats (ZFR) [2]; captopril 30 mg/kg in feed) of the same molecule?
**A.** 0.82 ng/mL

**Q.** And the “average baseline glucose level” value (Zucker Fatty Rats (ZFR) [2]; captopril 30 mg/kg in feed)?
**A.** 302 mg/dL

**Q.** And the IL-1β (IL-1B; captopril 30 mg/kg in feed)?
**A.** 416.0 ± 14.8

**Q.** What about the “Organ weight, Epidydimal fat pad” value (Organ weights; captopril 30 mg/kg in feed) of the same molecule?
**A.** 19.1 ± 1.2

**Q.** What about the “Organ weight, Kidney (left)” value (Organ weights; captopril 30 mg/kg in feed) of the same molecule?
**A.** 2.3 ± 0.09

**Q.** And the “Organ weight, Kidney (right)” value (Organ weights; captopril 30 mg/kg in feed)?
**A.** 2.3 ± 0.09

**Q.** What about the “Organ weight, Liver” value (Organ weights; captopril 30 mg/kg in feed) of the same molecule?
**A.** 43.1 ± 2.0
